Assay results taken from patent US20140121216A1, “INDOLEAMINE DERIVATIVES FOR THE TREATMENT OF CENTRAL NERVOUS SYSTEM DISEASES” (Adamed Sp. z o.o., priority 2011, published 2014).

Columns and labels:
Assay type in all cases: in vivo
[1] = tested on: Male CD-1 mice; experiment: Dizocilpine-induced locomotor hyperactivity in mice
Experimental: Potential antipsychotic activity was tested for the representative compound 24 in mouse model of psychosis, involving the induction of locomotor hyperactivity by administering psychotomimetic substance-dizocilpine. The ability of a test compound to remove this effect is a measure of potential antipsychotic activity.
Male CD-1 mice were group-housed for 2-3 day period in polycarbonate Makrolon type 3 cages (dimensions 26.5×15×42 cm) in an environmentally controlled, experimental room (ambient temperature 22-20° C.; relative humidity 50-60%; 12:12 light:dark cycle, lights on at 8:00), in groups of 15. Standard laboratory food (Ssniff M-Z) and filtered water were freely available. On the day before experiments the equipment produced “white noise” was turned on for 30 minutes and mice were weighted exact to 1 g. Animals were assigned randomly to treatment groups. All the experiments were performed by two observers unaware of the treatment applied between 9:00 and 14:00 on separate groups of animals. […]
The locomotor activity was recorded with an Opto M3 multi-channel activity monitor (MultiDevice Software v.1.3, Columbus Instruments). The mice were individually placed in plastic cages (22×12×13 cm) for 30 minutes habituation period, and then the crossings of each channel (ambulation) were counted during 1 h with data recording every 5 minutes. […]

[2] = tested on: male Wistar rats; experiment: Conflict test (Vogel test) in rats
Experimental: (§1) Drug-naive male Wistar rats (Charles River, Sulzfeld, Germany) weighing 250-400 g were housed in polycarbonate Makrolon cages (380×200×590 mm) in an environmentally controlled, experimental room (ambient temperature 21-23° C.; relative humidity 50-60%; 12:12 light:dark cycle, lights on at 7:00 a.m.), in groups of 4. Tap water and standard lab chow (Labofeed H, WPIK, Kcynia, Poland) was available ad libitum.
(§2) The animals were delivered to the Animal Research Unit of the Department of Pharmacology, Institute of Psychiatry and Neurology, 2 weeks before the start of experimental procedures. During these 2 weeks all the rats were repeatedly getting used to the presence of the experimenter (handling), and to injections of saline.
On the day before experiments rats were weighted exact to 1 g. Animals were assigned randomly to treatment groups. All the experiments were performed on separate groups of animals, between 9:00 and 15:00. Tested compound was administered intraperitoneally (i.p.) in an injection volume of 2 ml/kg in at least 3 selected doses. Control groups received an appropriate vehiculum. […]
The test was performed by modified method described by Vogel et al. (Psychopharmacologia, 21 (1), 8-12, 1971) using the monitoring system TSE Systems. […] The number of licks and the number of shocks received throughout a 5-min experimental session were recorded automatically.

[3] = tested on: male Wistar rats; experiment: Reversal of the dizocilpine (MK-801)-induced PPI deficits in rats
Experimental: as §1, §2
On the day before experiments rats were weighted exact to 1 g. Animals were assigned randomly to treatment groups. All the experiments were performed on separate groups of animals, between 9:00 and 15:00. […]
The PPI apparatus consisted of eight acoustic startle chambers (SR-LAB, San Diego Instruments, San Diego, Calif., USA). […] Startle responses, reflecting the motion of animals in the cylinder following the acoustic stimulus, were detected by a piezoelectric transducer mounted below the frame. […]
The average inter-trial interval was 22.5 s (range: 15-30 s). […] Startle responses were measured for 100 ms after the onset of the last trial stimulus. […]

For O=C1CCc2ccc(OCCCCN3CCN(c4cccc5c4ccn5S(=O)(=O)c4ccccc4)CC3)cc2N1 [Compound 24, 7-(4-(4-(1-(Phenylsulphonyl)-1H-indol-4-yl)piperazin-1-yl)butoxy)-3,4-dihydroquinolin-2(1H)-one], the “activity in words, dizocilpine-induced locomotor hyperactivity test” value [1] was “active”, the “MED (minimum effective dose), dizocilpine-induced locomotor hyperactivity” value ([1]; i.p., 30 minutes before the experiment) was 10 mg/kg and the “activity in words, conflict drinking test (Vogel)” value [2] was “active”. For the same compound, the “MED (minimum effective dose), conflict test (Vogel test)” value ([2]; i.p.) was 3 mg/kg, the “activity in words, dizocilpine (MK-801)-induced PPI deficit test” value [3] was “active” and the “MED (minimum effective dose), reversal of dizocilpine (MK-801)-induced PPI deficits” value ([3]; i.p., 60 min. before the test) was 10 mg/kg.
